“And” between values parts separate entries of the source, which are not always exact repeats. Identical values can stand only once.

This is an account of results in patent US7713942B2, “Cage-like microparticle complexes comprising sterols and saponins for delivery of polynucleotides” (Nordic Vaccine Technology A/S, priority 2001, dated 2010).

For data set [1] the following is noted: dose-dependent, apparently nonspecific; cited from earlier work.
Data set [2] can be described thus: Equilibrium-dialysis of ^14C-Mega 10 from ISCOM-matrix. The following applies: water not replaced. How it is done:
ISCOMs were prepared by combining Quil A, cholesterol and phophatidylcholine with the component to be inserted (e.g. lipopeptide). ISCOMs were allowed to form for 4 hours with stirring at 35° C. (room temperature for experiments with ^12C/^14C-Mega 10) followed by dialysis against phosphate buffered saline (pH 7.2) in Slide-A-Lyzer® cassettes (Pierce, Rockford, Ill.) or dialysis tubing (Visking, London, UK), MW cut-off 10,000. The concentration in the reaction mixture of Quil A ranged 0.9 mg/ml to 1.3 mg/ml for the different preparations (see Section 3), whereas the concentration of cholesterol and phophatidylcholine was 0.03% w/v in all experiments. The final concentration of Mega 10 was 4% w/v unless otherwise stated.
In the first experiment the kinetics of the Mega 10-dialysis was investigated. ISCOM-matrix was formed in the presence of 7% w/v ^12C/^14C-Mega 10 and Quil A at a concentration of 0.9 mg/ml. From a total volume of 18.3 ml sixteen aliquots of 1 ml were taken and set up for dialysis against water in 8 beakers of 1000 ml (2×1 ml bags per 1000 ml water). Four beakers were placed at room temperature and four at 4° C. with stirring. On each of the following days one beaker from both temperatures were taken and the contents of the individual dialysis bags (2×2 bags) counted after addition of water in order to compensate for differences in volume. Table 1 lists the amount of ^14C-Mega 10 remaining in each bag after dialysis for a certain period of time given as the percentage of cpm (counts per minute) relative to the initial ^14C-contents. […] However, the same end-point concentration of ^14C-Mega 10 was reached within four days (0.4-1%) despite of temperature. Anticipating that Mega 10 diffuses freely across the dialysis membrane one would expect the contents of dialysis bags to represent 0.51% of the total ^14C-Mega 10, as the volume of two bags (from one beaker) at equilibrium was 5.1 ml leaving approx. 995 ml in the beaker (5.1 ml/995 ml*100%=0.51%). And it is concluded that although dialysis at room temperature is faster than dialysis at 4° C. both methods are equally efficient in removing Mega 10 from ISCOM-matrix.

A short description of data set [3]: End-point-dialysis of ^14C-Mega 10 from ISCOM-matrix. The conditions noted are these: for Amount of detergent remaining in bags: Room temperature, daily replacement of water. On the procedure:
In order to further investigate if Mega 10 could be completely removed from ISCOM-matrix a second experiment was designed. Here, four dialysis bags containing 1 ml of ISCOM-matrix prepared with 3.3% w/v ^12C/^14C-Mega 10 was placed in individual beakers containing 1000 ml of water. Dialysis was performed at room temperature with stirring. Each day one beaker was taken and the contents of the dialysis bag counted after which the dialysis buffer (water) of the remaining beakers was replaced.

For `CC(=O)O[C@@H]1[C@H](O[C@@H]2O[C@@H](CO)[C@H](O)[C@H]2O)[C@@H](O[C@@H]2O[C@@H](C)[C@H](O[C@@H]3OC[C@@H](O)[C@H](O)[C@H]3O)[C@@H](O)[C@H]2O)[C@H](OC(=O)[C@]23CCC(C)(C)C[C@H]2C2=CC[C@@H]4[C@@]5(C)CC[C@H](O[C@@H]6O[C@H](C(=O)O)[C@@H](O)[C@H](O[C@@H]7OC[C@@H](O)[C@H](O)[C@H]7O)[C@H]6O[C@@H]6O[C@H](CO)[C@H](O)[C@H](O)[C@H]6O)[C@@](C)(C=O)[C@H]5CC[C@@]4(C)[C@]2(C)CC3)O[C@@H]1C` [Squarroside A], the immunomodulating activity entry in data set [1] was “a suppressive effect at concentrations in the μg range and a stimulant effect in the pg range”.
On to `CCCCCCCCCC(=O)N(C)CC(O)C(O)C(O)C(O)CO` (centres unmarked) [^14C-Mega 10, N-Decanoyl-N-methylglucamide], for which the “Amount of detergent remaining in dialysis bags” value in data set [2] (4° C., 1 day) was 14.5 percentage of initial cpm and 13.5 percentage of initial cpm; in data set [2] (4° C., 2 days), 2.2 percentage of initial cpm and 2.3 percentage of initial cpm; in data set [2] (4° C., 3 days), 1.0 percentage of initial cpm and 1.3 percentage of initial cpm; in data set [2] (4° C., 4 days), 0.7 percentage of initial cpm and 1.1 percentage of initial cpm; in data set [2] (Room temperature, 1 day) it was 2.1 percentage of initial cpm; in data set [2] (Room temperature, 2 days), 0.9 percentage of initial cpm. The “Amount of detergent remaining in dialysis bags” value is 0.9 percentage of initial cpm in data set [2] (Room temperature, 3 days); 0.7 percentage of initial cpm and 0.4 percentage of initial cpm in data set [2] (Room temperature, 4 days). Further, the “Amount of detergent remaining in bags” value came out at 0.23% in data set [3] (1 day), 0.07% in data set [3] (2 days), 0.06% in data set [3] (3 days) and 0.07% in data set [3] (4 days). For the same molecule, the “original amount of detergent remaining within the dialysis bag” value in data set [3] (at equilibrium, with replacement of water) is on record as 0.07%.
